Consider 2 compounds from ChEMBL document CHEMBL4680133, “Novel nitroimidazole derivatives evaluated for their trypanocidal, cytotoxic, and genotoxic activities” (Eur J Med Chem, 2020).

Data set [1] deals with RAW264.7. The experiment in a line: Cytotoxicity against mouse RAW264.7 cells at 21.3 to 427 uM measured after 24 hrs by LDH assay. Type of data set: cell-based. The note with it: raw264.7, 24 h, dose 21.3-427 µM.
In data set [2] the test system is RAW264.7. In words: Genotoxicity in mouse RAW264.7 cells assessed as mitotic index at 213 uM measured after 24 hrs by micronucleus test (reference value: 40 to 249). Type of data set: toxicity, cell-based. The note with it: raw264.7, 24 h.
Data set [3] relates to RAW264.7. In words: Genotoxicity in mouse RAW264.7 cells assessed as mitotic index at 427 uM measured after 24 hrs by micronucleus test (reference value: 40 to 249). It is filed as toxicity, cell-based. Particulars: raw264.7, 24 h.
For data set [4], the system named is RAW264.7. In words: Genotoxicity in mouse RAW264.7 cells assessed as mitotic index at 2135 uM measured after 24 hrs by micronucleus test (reference value: 40 to 249). Type of data set: toxicity, cell-based. Particulars: raw264.7, 24 h.
The test system of data set [5] is RAW264.7. The experiment in a line: Genotoxicity in mouse RAW264.7 cells assessed as mitotic index at 4270 uM measured after 24 hrs by micronucleus test (reference value: 40 to 249). Type of data set: toxicity, cell-based. Particulars: raw264.7, 24 h.
Data set [6] concerns RAW264.7. In words: Genotoxicity in mouse RAW264.7 cells assessed as number of micronucleated cells at 427 uM measured after 24 hrs by micronucleus test (reference value: 12 to 15). Type of data set: toxicity, cell-based. Particulars: raw264.7, 24 h.
The subject of data set [7] is RAW264.7. In words: Genotoxicity in mouse RAW264.7 cells assessed as number of micronucleated cells at 2135 uM measured after 24 hrs by micronucleus test (reference value: 12 to 15). It is filed as toxicity, cell-based. Particulars: raw264.7, 24 h.
Data set [8] relates to RAW264.7. In words: Genotoxicity in mouse RAW264.7 cells assessed as number of micronucleated cells at 4270 uM measured after 24 hrs by micronucleus test (reference value: 12 to 15). Particulars: raw264.7, 24 h. Type of data set: toxicity, cell-based.
Data set [9] is described as follows: Genotoxicity in mouse RAW264.7 cells assessed as survival at 213 uM measured after 24 hrs by micronucleus test (reference value: 100%). It is filed as toxicity, cell-based. The note with it: read-out: Survival.
Data set [10] in a line: Genotoxicity in mouse RAW264.7 cells assessed as survival at 427 uM measured after 24 hrs by micronucleus test (reference value: 100%). It is filed as toxicity, cell-based. The note with it: read-out: Survival.
Data set [11] can be described thus: Genotoxicity in mouse RAW264.7 cells assessed as survival at 2135 uM measured after 24 hrs by micronucleus test (reference value: 100%). The note with it: read-out: Survival. It is filed as toxicity, cell-based.
The test system of data set [12] is HepG2. In words: Genotoxicity in human HepG2 assessed as mitotic index at 213 uM measured after 24 hrs by micronucleus test (reference value: 61 to 108). It is filed as toxicity, cell-based. The note with it: hepg2, 24 h.
In data set [13] the test system is HepG2. In words: Genotoxicity in human HepG2 assessed as mitotic index at 427 uM measured after 24 hrs by micronucleus test (reference value: 61 to 108). Type of data set: toxicity, cell-based. Particulars: hepg2, 24 h.
For data set [14], the system named is HepG2. In words: Genotoxicity in human HepG2 assessed as mitotic index at 2135 uM measured after 24 hrs by micronucleus test (reference value: 61 to 108). It is filed as toxicity, cell-based. Particulars: hepg2, 24 h.
In data set [15] the test system is HepG2. The experiment in a line: Genotoxicity in human HepG2 assessed as number of micronucleated cells at 213 uM measured after 24 hrs by micronucleus test (reference value: 14 to 18). The note with it: hepg2, 24 h. Type of data set: toxicity, cell-based.
The subject of data set [16] is HepG2. The experiment in a line: Genotoxicity in human HepG2 assessed as number of micronucleated cells at 427 uM measured after 24 hrs by micronucleus test (reference value: 14 to 18). Type of data set: toxicity, cell-based. Particulars: hepg2, 24 h.
The subject of data set [17] is HepG2. In words: Genotoxicity in human HepG2 assessed as number of micronucleated cells at 2135 uM measured after 24 hrs by micronucleus test (reference value: 14 to 18). It is filed as toxicity, cell-based. Particulars: hepg2, 24 h.
Data set [18] concerns HepG2. In words: Genotoxicity in human HepG2 assessed as number of micronucleated cells at 4270 uM measured after 24 hrs by micronucleus test (reference value: 14 to 18). It is filed as toxicity, cell-based. The note with it: hepg2, 24 h.
The nature of data set [19]: Genotoxicity in human HepG2 assessed as survival at 427 uM measured after 24 hrs by micronucleus test (reference value: 100%). Type of data set: toxicity, cell-based. Particulars: HepG2 cells, read-out: Survival.
A short description of data set [20]: Genotoxicity in human HepG2 assessed as survival at 4270 uM measured after 24 hrs by micronucleus test (reference value: 100%). Type of data set: toxicity, cell-based. The note with it: HepG2 cells, read-out: Survival.
In data set [21] the test system is RAW264.7. The experiment in a line: Cytotoxicity against mouse RAW264.7 cells assessed as induction of membrane damage at 17.5 to 350 uM measured after 24 hrs by LDH assay. The note with it: raw264.7, 24 h, dose 17.5-350 µM. Type of data set: cell-based.
Data set [22] has as its system HepG2. In words: Cytotoxicity against human HepG2 cells assessed as induction of membrane damage at 17.5 to 350 uM measured after 24 hrs by LDH assay. The note with it: hepg2, 24 h, dose 17.5-350 µM. It is filed as cell-based.
For data set [23], the system named is RAW264.7. In words: Genotoxicity in mouse RAW264.7 cells assessed as mitotic index at 350 uM measured after 24 hrs by micronucleus test (reference value: 40 to 249). Type of data set: toxicity, cell-based. Particulars: raw264.7, 24 h.
Data set [24] relates to RAW264.7. The experiment in a line: Genotoxicity in mouse RAW264.7 cells assessed as mitotic index at 1750 uM measured after 24 hrs by micronucleus test (reference value: 40 to 249). It is filed as toxicity, cell-based. The note with it: raw264.7, 24 h.
Data set [25] concerns RAW264.7. The experiment in a line: Genotoxicity in mouse RAW264.7 cells assessed as number of micronucleated cells at 175 uM measured after 24 hrs by micronucleus test (reference value: 12 to 15). Type of data set: toxicity, cell-based. Particulars: raw264.7, 24 h.
Data set [26] concerns RAW264.7. The experiment in a line: Genotoxicity in mouse RAW264.7 cells assessed as number of micronucleated cells at 350 uM measured after 24 hrs by micronucleus test (reference value: 12 to 15). It is filed as toxicity, cell-based. The note with it: raw264.7, 24 h.
Data set [27] deals with RAW264.7. In words: Genotoxicity in mouse RAW264.7 cells assessed as number of micronucleated cells at 1750 uM measured after 24 hrs by micronucleus test (reference value: 12 to 15). It is filed as toxicity, cell-based. The note with it: raw264.7, 24 h.
The subject of data set [28] is RAW264.7. The experiment in a line: Genotoxicity in mouse RAW264.7 cells assessed as number of micronucleated cells at 3500 uM measured after 24 hrs by micronucleus test (reference value: 12 to 15). It is filed as toxicity, cell-based. Particulars: raw264.7, 24 h.
The nature of data set [29]: Genotoxicity in mouse RAW264.7 cells assessed as survival at 175 uM measured after 24 hrs by micronucleus test (reference value: 100%). It is filed as toxicity, cell-based. Particulars: read-out: Survival.
Data set [30] deals with HepG2. The experiment in a line: Genotoxicity in human HepG2 assessed as mitotic index at 175 uM measured after 24 hrs by micronucleus test (reference value: 61 to 108). It is filed as toxicity, cell-based. The note with it: hepg2, 24 h.
Data set [31] deals with HepG2. In words: Genotoxicity in human HepG2 assessed as mitotic index at 350 uM measured after 24 hrs by micronucleus test (reference value: 61 to 108). The note with it: hepg2, 24 h. It is filed as toxicity, cell-based.
Data set [32] relates to HepG2. The experiment in a line: Genotoxicity in human HepG2 assessed as mitotic index at 1750 uM measured after 24 hrs by micronucleus test (reference value: 61 to 108). Type of data set: toxicity, cell-based. Particulars: hepg2, 24 h.
Data set [33] has as its system HepG2. In words: Genotoxicity in human HepG2 assessed as mitotic index at 3500 uM measured after 24 hrs by micronucleus test (reference value: 61 to 108). It is filed as toxicity, cell-based. The note with it: hepg2, 24 h.
Data set [34] relates to HepG2. The experiment in a line: Genotoxicity in human HepG2 assessed as number of micronucleated cells at 350 uM measured after 24 hrs by micronucleus test (reference value: 14 to 18). Type of data set: toxicity, cell-based. Particulars: hepg2, 24 h.
The test system of data set [35] is HepG2. In words: Genotoxicity in human HepG2 assessed as number of micronucleated cells at 1750 uM measured after 24 hrs by micronucleus test (reference value: 14 to 18). The note with it: hepg2, 24 h. It is filed as toxicity, cell-based.
Data set [36] can be described thus: Genotoxicity in human HepG2 assessed as survival at 175 uM measured after 24 hrs by micronucleus test (reference value: 100%). It is filed as toxicity, cell-based. Particulars: HepG2 cells, read-out: Survival.
The nature of data set [37]: Genotoxicity in human HepG2 assessed as survival at 1750 uM measured after 24 hrs by micronucleus test (reference value: 100%). It is filed as toxicity, cell-based. The note with it: HepG2 cells, read-out: Survival.
Data set [38] in a line: Genotoxicity in human HepG2 assessed as survival at 3500 uM measured after 24 hrs by micronucleus test (reference value: 100%). Type of data set: toxicity, cell-based. Particulars: HepG2 cells, read-out: Survival.

Molecules are shown by their SMILES.

For the compound `Cn1cnc([N+](=O)[O-])c1-n1cc(C2CC2)nn1`, the Activity result in data set [1] is listed as “Non-Toxic”; in [6] it was 11; in data set [7] it was 19; in data set [8], 20; in data set [15], 17; in data set [16] it was 17. Further, the Activity in [17] was found to be 19; in [18], 27. Also, the Activity_index in data set [2] is recorded as 30; in data set [3], 34; in data set [4] it was 37; in data set [5], 36; in data set [12], 97; in [13] it was 106. Also, the Activity_index in data set [14] is given as 101. The viability at 24 h, 213 µM in data set [9] was found to be 99%. Also, the viability at 24 h, 427 µM in data set [10] and in [19] was 99% each time. Also, the viability at 24 h, 2135 µM in [11] was 96%. Also, the viability at 24 h, 4270 µM in data set [20] is 91%.

Consider `CCCCCc1ccc(-c2cn(-c3c([N+](=O)[O-])ncn3C)nn2)cc1`, for which the Activity entry in data set [21] was “Toxic”; in [22] it was “Toxic”; in data set [25] it was 11; in data set [26], 13; in [27], 23; in [28], 39. In addition, the Activity in [34] was 25; in data set [35], 35. Further, the Activity_index in data set [23] is reported as 223; in [24], 166; in [30] it was 111; in data set [31], 91; in data set [32], 59; in data set [33] it was 53. Besides, the viability at 24 h, 175 µM in data set [29] and in [36] was 99% in each case. The viability at 24 h, 1750 µM in data set [37] was found to be 80%. In addition, the viability at 24 h, 3500 µM in [38] was determined as 64%.
